Values joined by “and” are separate entries in the source; they are usually repeats but may differ in a detail not shown here. Identical values can stand only once.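 Test compounds were applied to cells in 96-well plates for 48 hours at 5 doses. GI50 = concentration required for 50% inhibition of growth. TGI marks complete inhibition of growth.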
Legend:
Assay in all cases: NCI tumour cell line growth inhibition, 48 h
EKVX NSCLC = test system: EKVX NSCLC
OVCAR-8 ovarian = test system: OVCAR-8 ovarian
HL-60(TB) leukemia = test system: HL-60(TB) leukemia
HOP-62 NSCLC = test system: HOP-62 NSCLC
M14 melanoma = test system: M14 melanoma
M19-MEL melanoma = test system: M19-MEL melanoma
SNB-19 CNS = test system: SNB-19 CNS
LXFL 529 NSCLC = test system: LXFL 529 NSCLC
MALME-3M melanoma = test system: MALME-3M melanoma
DMS 114 small cell lung = test system: DMS 114 small cell lung
HT29 colon = test system: HT29 colon
CCRF-CEM leukemia = test system: CCRF-CEM leukemia
KM12 colon = test system: KM12 colon
NCI-H226 lung = test system: NCI-H226 lung
K-562 leukemia = test system: K-562 leukemia
MDA-MB-231 breast = test system: MDA-MB-231 breast
NCI-H522 lung = test system: NCI-H522 lung
UO-31 renal = test system: UO-31 renal
SF-268 CNS = test system: SF-268 CNS
SR leukemia = test system: SR leukemia
NCI-H23 lung = test system: NCI-H23 lung
DU-145 prostate = test system: DU-145 prostate
HS 578T breast = test system: HS 578T breast
T-47D breast = test system: T-47D breast
XF 498 CNS = test system: XF 498 CNS
SK-MEL-5 melanoma = test system: SK-MEL-5 melanoma
SF-295 CNS = test system: SF-295 CNS
DMS 273 small cell lung = test system: DMS 273 small cell lung
COLO 205 colon = test system: COLO 205 colon
SNB-78 CNS = test system: SNB-78 CNS
HCC-2998 colon = test system: HCC-2998 colon
A549 NSCLC = test system: A549 NSCLC
BT-549 breast = test system: BT-549 breast
SK-MEL-28 melanoma = test system: SK-MEL-28 melanoma
SNB-75 CNS = test system: SNB-75 CNS
OVCAR-5 ovarian = test system: OVCAR-5 ovarian
U251 CNS = test system: U251 CNS
A498 renal = test system: A498 renal
NCI-H460 lung = test system: NCI-H460 lung
RPMI-8226 leukemia = test system: RPMI-8226 leukemia
HOP-92 NSCLC = test system: HOP-92 NSCLC
OVCAR-3 ovarian = test system: OVCAR-3 ovarian
IGROV1 ovarian = test system: IGROV1 ovarian
SW-620 colon = test system: SW-620 colon
SF-539 CNS = test system: SF-539 CNS
RXF 393 renal = test system: RXF 393 renal
UACC-257 melanoma = test system: UACC-257 melanoma
OVCAR-4 ovarian = test system: OVCAR-4 ovarian
ACHN renal = test system: ACHN renal
MCF7 breast = test system: MCF7 breast
786-0 renal = test system: 786-0 renal
HCT-116 colon = test system: HCT-116 colon

CCCCCCCCCCCCCCCCCCOP(=O)([O-])OC1CC[N+](C)(C)CC1
GI50 (EKVX NSCLC): > 10 µM
TGI (EKVX NSCLC): > 10 µM and 26.8 µM
GI50 (OVCAR-8 ovarian): > 10 µM
TGI (OVCAR-8 ovarian): > 10 µM and 28.8 µM
GI50 (HL-60(TB) leukemia): > 10 µM
TGI (HL-60(TB) leukemia): > 10 µM and 6.98 µM
GI50 (HOP-62 NSCLC): 3.2 µM
TGI (HOP-62 NSCLC): > 10 µM and 20.7 µM
GI50 (M14 melanoma): 1.87 µM
TGI (M14 melanoma): 4.41 µM and 12.7 µM
TGI (M19-MEL melanoma): 14.8 µM
GI50 (SNB-19 CNS): 5.02 µM
TGI (SNB-19 CNS): > 10 µM and 23.2 µM
TGI (LXFL 529 NSCLC): 16.5 µM
GI50 (MALME-3M melanoma): > 10 µM
TGI (MALME-3M melanoma): > 10 µM and 26.8 µM
TGI (DMS 114 small cell lung): 26.5 µM
GI50 (HT29 colon): 3.04 µM
TGI (HT29 colon): > 10 µM and 14.4 µM
GI50 (CCRF-CEM leukemia): 2.73 µM
TGI (CCRF-CEM leukemia): 7.55 µM and 10.5 µM
GI50 (KM12 colon): 1.15 µM
TGI (KM12 colon): 2.97 µM and 1.46 µM
GI50 (NCI-H226 lung): > 10 µM
TGI (NCI-H226 lung): > 10 µM and 27.1 µM
GI50 (K-562 leukemia): 3.63 µM
TGI (K-562 leukemia): > 10 µM and 39 µM
GI50 (MDA-MB-231 breast): 4.81 µM
TGI (MDA-MB-231 breast): > 10 µM and 20.8 µM
GI50 (NCI-H522 lung): 1.89 µM
TGI (NCI-H522 lung): 5.64 µM and 12.2 µM
GI50 (UO-31 renal): 4.27 µM
TGI (UO-31 renal): > 10 µM and 21.7 µM
GI50 (SF-268 CNS): 4.42 µM
TGI (SF-268 CNS): > 10 µM and 24.6 µM
GI50 (SR leukemia): 0.87 µM
TGI (SR leukemia): 4.2 µM and 5.74 µM
GI50 (NCI-H23 lung): > 10 µM
TGI (NCI-H23 lung): > 10 µM and 28.5 µM
GI50 (DU-145 prostate): > 10 µM
TGI (DU-145 prostate): > 10 µM and 38.5 µM
GI50 (HS 578T breast): > 10 µM
TGI (HS 578T breast): > 10 µM and 27.5 µM
GI50 (T-47D breast): 5.08 µM
TGI (T-47D breast): > 10 µM and 36.9 µM
TGI (XF 498 CNS): 29.1 µM
TGI (SK-MEL-5 melanoma): 29.7 µM
GI50 (SF-295 CNS): 3.63 µM
TGI (SF-295 CNS): > 10 µM and 18.2 µM
TGI (DMS 273 small cell lung): 14.9 µM
GI50 (COLO 205 colon): 1.42 µM
TGI (COLO 205 colon): 9.43 µM and 15.8 µM
TGI (SNB-78 CNS): 46.2 µM
TGI (HCC-2998 colon): 17.3 µM
GI50 (A549 NSCLC): 6.98 µM
TGI (A549 NSCLC): > 10 µM and 24.6 µM
GI50 (BT-549 breast): 5.76 µM
TGI (BT-549 breast): > 10 µM and 27.5 µM
GI50 (SK-MEL-28 melanoma): > 10 µM
TGI (SK-MEL-28 melanoma): > 10 µM and 34.4 µM
GI50 (SNB-75 CNS): > 10 µM
TGI (SNB-75 CNS): > 10 µM and 20 µM
GI50 (OVCAR-5 ovarian): 2.25 µM
TGI (OVCAR-5 ovarian): > 10 µM and 8.82 µM
GI50 (U251 CNS): 4.02 µM
TGI (U251 CNS): > 10 µM and 26.1 µM
GI50 (A498 renal): 2 µM
TGI (A498 renal): 7.6 µM and 14.8 µM
GI50 (NCI-H460 lung): 2.85 µM
TGI (NCI-H460 lung): > 10 µM and 7.65 µM
GI50 (RPMI-8226 leukemia): 1.18 µM
TGI (RPMI-8226 leukemia): > 10 µM and 13.8 µM
GI50 (HOP-92 NSCLC): 2.1 µM
TGI (HOP-92 NSCLC): 5.32 µM and 9.79 µM
GI50 (OVCAR-3 ovarian): > 10 µM
TGI (OVCAR-3 ovarian): > 10 µM and 23 µM
GI50 (IGROV1 ovarian): 1.3 µM
TGI (IGROV1 ovarian): 4.29 µM and 10.8 µM
TGI (SW-620 colon): > 10 µM and 22.4 µM
GI50 (SF-539 CNS): > 10 µM
TGI (SF-539 CNS): > 10 µM and 29.7 µM
TGI (RXF 393 renal): 5.55 µM and 8.04 µM
GI50 (UACC-257 melanoma): > 10 µM
TGI (UACC-257 melanoma): > 10 µM and 45.7 µM
TGI (OVCAR-4 ovarian): > 10 µM and 23.5 µM
GI50 (ACHN renal): 6.37 µM
TGI (ACHN renal): > 10 µM and 25.8 µM
GI50 (MCF7 breast): > 10 µM
TGI (MCF7 breast): > 10 µM and 34 µM
GI50 (786-0 renal): 2.18 µM
TGI (786-0 renal): 5.95 µM and 8.32 µM
GI50 (HCT-116 colon): 5.24 µM
TGI (HCT-116 colon): > 10 µM and 20.6 µM

COc1cccc2c1C(CO)N1C(C#N)C3CC(C(=O)O)C(C1C2)N3C (stereo not drawn)
GI50 (EKVX NSCLC): 0.734 µM
TGI (EKVX NSCLC): 10.6 µM
GI50 (OVCAR-8 ovarian): 0.372 µM
GI50 (HL-60(TB) leukemia): 0.239 µM
TGI (HL-60(TB) leukemia): 4.53 µM and 0.811 µM
TGI (HOP-62 NSCLC): 8.15 µM and 3.73 µM
GI50 (M14 melanoma): 0.363 µM
TGI (M14 melanoma): 6.91 µM and 1.42 µM
GI50 (M19-MEL melanoma): 0.256 µM
GI50 (SNB-19 CNS): 0.212 µM
TGI (SNB-19 CNS): > 15.5 µM
TGI (LXFL 529 NSCLC): 6.67 µM
GI50 (MALME-3M melanoma): 0.458 µM
TGI (MALME-3M melanoma): 4.6 µM and 1.23 µM
GI50 (DMS 114 small cell lung): 0.159 µM
TGI (HT29 colon): 6.55 µM
GI50 (CCRF-CEM leukemia): 0.0877 µM
TGI (CCRF-CEM leukemia): 8.55 µM and > 17 µM
GI50 (KM12 colon): 0.679 µM
TGI (KM12 colon): 8.3 µM and > 26 µM
GI50 (NCI-H226 lung): 2.47 µM and 0.327 µM
TGI (NCI-H226 lung): 5.38 µM and 1.23 µM
GI50 (K-562 leukemia): 0.275 µM
TGI (K-562 leukemia): > 100 µM
GI50 (MDA-MB-231 breast): 0.271 µM
TGI (MDA-MB-231 breast): 0.933 µM and 0.521 µM
GI50 (NCI-H522 lung): 0.238 µM
TGI (NCI-H522 lung): 0.874 µM and 0.389 µM
GI50 (UO-31 renal): 0.365 µM
TGI (UO-31 renal): 4.36 µM and 2.46 µM
GI50 (SF-268 CNS): 0.313 µM
TGI (SF-268 CNS): 8.75 µM and 57.3 µM
GI50 (SR leukemia): 0.0308 µM
TGI (SR leukemia): 7.2 µM
GI50 (NCI-H23 lung): 0.222 µM
TGI (NCI-H23 lung): 4.42 µM and 0.558 µM
GI50 (DU-145 prostate): 0.365 µM
TGI (DU-145 prostate): > 100 µM
GI50 (HS 578T breast): 0.538 µM
TGI (HS 578T breast): 3.08 µM
GI50 (T-47D breast): 0.135 µM
GI50 (XF 498 CNS): 1.79 µM
GI50 (SK-MEL-5 melanoma): 0.383 µM
TGI (SK-MEL-5 melanoma): 4.07 µM and 0.985 µM
GI50 (SF-295 CNS): 0.42 µM
TGI (SF-295 CNS): 27.2 µM
GI50 (DMS 273 small cell lung): 0.335 µM
TGI (DMS 273 small cell lung): 8.25 µM
GI50 (COLO 205 colon): 0.112 µM
TGI (COLO 205 colon): 2.66 µM and 1.2 µM
GI50 (SNB-78 CNS): 0.334 µM
TGI (SNB-78 CNS): 7.97 µM and 12 µM
GI50 (HCC-2998 colon): 3.14 µM
TGI (HCC-2998 colon): 8.21 µM and 2.78 µM
GI50 (A549 NSCLC): 4.74 µM
TGI (BT-549 breast): 0.739 µM and 1.94 µM
GI50 (SK-MEL-28 melanoma): 0.391 µM
TGI (SK-MEL-28 melanoma): 3.83 µM and 1.88 µM
GI50 (SNB-75 CNS): 0.298 µM
TGI (SNB-75 CNS): 5.42 µM and 1.99 µM
GI50 (OVCAR-5 ovarian): 0.183 µM
GI50 (U251 CNS): 0.0787 µM
GI50 (A498 renal): 0.304 µM
GI50 (NCI-H460 lung): 1.24 µM
GI50 (RPMI-8226 leukemia): 0.0637 µM
TGI (RPMI-8226 leukemia): 3.94 µM and 1.54 µM
GI50 (HOP-92 NSCLC): 0.422 µM
TGI (HOP-92 NSCLC): 7.63 µM and > 18.4 µM
GI50 (OVCAR-3 ovarian): 0.305 µM
TGI (IGROV1 ovarian): 9.67 µM and 4.64 µM
GI50 (SW-620 colon): 0.467 µM
GI50 (SF-539 CNS): 0.195 µM
TGI (SF-539 CNS): 3.11 µM and 1.02 µM
GI50 (RXF 393 renal): 0.203 µM
TGI (RXF 393 renal): 1.85 µM and 0.571 µM
GI50 (UACC-257 melanoma): 0.331 µM
TGI (UACC-257 melanoma): 3.96 µM and 2.11 µM
GI50 (OVCAR-4 ovarian): 0.705 µM
TGI (OVCAR-4 ovarian): 27 µM
GI50 (ACHN renal): 0.294 µM
TGI (MCF7 breast): > 44 µM
GI50 (786-0 renal): 0.236 µM
TGI (786-0 renal): 3.8 µM and 0.757 µM
GI50 (HCT-116 colon): 0.337 µM
TGI (HCT-116 colon): 5.59 µM
